Test results from patent publication US20230248788A1, “COMPOSITIONS AND RELATED METHODS FOR SUPPORTING COMPANION ANIMALS WITH GASTROINTESTINAL DISORDERS” (priority 2020, published 2023).
Values after ≈ are worked out from the molar mass of the structure shown. Like-named read-outs stand apart in the source and are kept apart here.

Tests used:
L. brevis WF-1B [1] = test: Antibiotic susceptibility assay, broth microdilution; type: cell-based, Levilactobacillus brevis; conditions: for MIC: antibiotic against L. brevis WF-1B; for susceptibility of L. brevis WF-1B to the antibiotic: MIC compared with EFSA cut-off value
Procedure: Broth microdilution was used to determine the susceptibility of the L. brevis WF-1B isolate against eight commonly used clinical antibiotics. Broth micro-dilution was performed following the methods according to: International Organization for Standardization, Milk and milk products—Determination of the minimal inhibitory concentration (MIC) of antibiotics applicable to bifidobacteria and non-enterrococcal lactic acid bacteria (LAB) (ISO 10932:2012). Antibiotic stock solutions were prepared following the methods according to: CLSI, Performance Standards for Antimicrobial Susceptibility Testing, 23rd edition, CLSI Standard M100, Wayne, Pa.: Clinical and Laboratory Standards Institute; 2013. The measured minimum inhibitory concentrations (MICs) and microbiological cut-off values from the antibiotic susceptibility assays for L. brevis WF-1B are shown below in Table 5.

L. brevis WF-1B [2] = conditions: EFSA microbiological cut-off value; cited from earlier work
[3] = Levilactobacillus brevis, WF1B, read-out: MIC

Compound: CC1(C)S[C@@H]2[C@H](NC(=O)[C@H](N)c3ccccc3)C(=O)N2[C@H]1C(=O)O [Ampicillin]
- MIC (L. brevis WF-1B [1]; [3]): 8 µg/mL (≈ 22.9 µM)
- susceptibility of L. brevis WF-1B to the antibiotic (L. brevis WF-1B [1]): resistant
- Cut-off value (L. brevis WF-1B [2]): 2 µg/mL

Compound: CC[C@H]1OC(=O)[C@H](C)[C@@H](O[C@H]2C[C@@](C)(OC)[C@@H](O)[C@H](C)O2)[C@H](C)[C@@H](O[C@@H]2O[C@H](C)C[C@H](N(C)C)[C@H]2O)[C@](C)(O)C[C@@H](C)C(=O)[C@H](C)[C@@H](O)[C@]1(C)O [Erythromycin]
- MIC (L. brevis WF-1B [1]; [3]): 0.83 µg/mL (≈ 1.13 µM)
- susceptibility of L. brevis WF-1B to the antibiotic (L. brevis WF-1B [1]): sensitive
- Cut-off value (L. brevis WF-1B [2]): 1 µg/mL

Compound: NC[C@H]1O[C@H](O[C@H]2[C@H](O)[C@@H](O[C@H]3O[C@H](CO)[C@@H](O)[C@H](N)[C@H]3O)[C@H](N)C[C@@H]2N)[C@H](O)[C@@H](O)[C@@H]1O [Kanamycin]
- MIC (L. brevis WF-1B [1]; [3]): 85 µg/mL (≈ 175 µM)

Compound: CN(C)[C@@H]1C(O)=C(C(N)=O)C(=O)[C@@]2(O)C(O)=C3C(=O)c4c(O)cccc4[C@@](C)(O)[C@H]3C[C@@H]12 [Tetracycline]
- MIC (L. brevis WF-1B [1]; [3]): 64 µg/mL (≈ 144 µM)

Compound: O=C(N[C@H](CO)[C@H](O)c1ccc([N+](=O)[O-])cc1)C(Cl)Cl [Chloramphenicol]
- MIC (L. brevis WF-1B [1]; [3]): 16 µg/mL (≈ 49.5 µM)
- susceptibility of L. brevis WF-1B to the antibiotic (L. brevis WF-1B [1]): resistant
- Cut-off value (L. brevis WF-1B [2]): 4 µg/mL

Compound: Gentamicin
- susceptibility of L. brevis WF-1B to the antibiotic (L. brevis WF-1B [1]): sensitive
- MIC (L. brevis WF-1B [1]): 3 µg/mL
- Cut-off value (L. brevis WF-1B [2]): 16 µg/mL

Compound: [H]/N=C(/N)N[C@H]1[C@H](O)[C@@H](O)[C@H](O[C@@H]2O[C@@H](C)[C@](O)(C=O)[C@H]2O[C@@H]2O[C@@H](CO)[C@H](O)[C@@H](O)[C@@H]2NC)[C@@H](N/C(N)=N\[H])[C@@H]1O [Streptomycin]
- MIC (L. brevis WF-1B [1]; [3]): 8 µg/mL (≈ 13.8 µM)
- susceptibility of L. brevis WF-1B to the antibiotic (L. brevis WF-1B [1]): sensitive
- Cut-off value (L. brevis WF-1B [2]): 64 µg/mL

Compound: CCC[C@@H]1C[C@@H](C(=O)N[C@@H]([C@H]2O[C@H](SC)[C@H](O)[C@@H](O)[C@H]2O)[C@H](C)Cl)N(C)C1 [Clindamycin]
- MIC (L. brevis WF-1B [1]; [3]): 8 µg/mL (≈ 18.8 µM)
